Here are results for one molecule from patent US20100184601A1, “Method and Means Relating to Multiple Herbicide Resistance in Plants” (University of Durham, priority 2007, published 2010).

The assay deals with AmGSTL1. Put plainly: Effect of inhibitors on activity of recombinant black-grass AmGSTL (thiol transferase). It is filed as biochemical, black-grass (Alopecurus myosuroides). The settings on record: 0.1 mM inhibitor; recombinant enzyme.

Structures are written as SMILES.

For `O=C1O/C(=C/Br)CCC1c1cccc2ccccc12` (stereo not shown) [BEL, Bromoenol lactone], the “inhibition of AmGSTL1 activity” value is “totally inhibited”.
